Columns and labels:
NK-YS (IL-2 2.5 ng/mL) [1] = assay: drug sensitivity score (DSS) (DSS units); higher = more sensitive; extreme values may be limits of the assay; settings: 72 h
[2] = system: normal primary NK cells, pool 3 (3 donors) (IL-2 2.5 ng/mL); assay: as above; settings: 72 h
NKL (IL-2 2.5 ng/mL) [3] = assay: as above; settings: 72 h
NK-92 (IL-2 2.5 ng/mL) [4] = assay: as above; settings: 72 h
[5] = system: normal primary NK cells, pool 1 (3 donors) (IL-2 2.5 ng/mL); assay: as above; settings: 72 h
[6] = system: normal primary NK cells, pool 1 (3 donors), resting (IL-2 0 ng/mL); assay: as above; settings: 72 h
[7] = system: normal primary NK cells, pool 2 (3 donors) (IL-2 2.5 ng/mL); assay: as above; settings: 72 h
IMC-1 (IL-2 20 ng/mL) [8] = assay: as above; settings: 72 h
YT (IL-2 2.5 ng/mL) [9] = assay: as above; settings: 72 h
KHYG-1 (IL-2 2.5 ng/mL) [10] = assay: as above; settings: 72 h
KAI3 (IL-2 2.5 ng/mL) [11] = assay: as above; settings: 72 h
DERL-7 (IL-2 2.5 ng/mL) [12] = assay: as above; settings: 72 h
SNK-6 (IL-2 2.5 ng/mL) [13] = assay: as above; settings: 72 h
NK-YS (IL-2 2.5 ng/mL) [14] = assay: percent inhibition of viability; higher = more inhibition; settings: 72 h
[15] = system: normal primary NK cells, pool 3 (3 donors) (IL-2 2.5 ng/mL); assay: as above; settings: 72 h
NKL (IL-2 2.5 ng/mL) [16] = assay: as above; settings: 72 h
NK-92 (IL-2 2.5 ng/mL) [17] = assay: as above; settings: 72 h
[18] = system: normal primary NK cells, pool 1 (3 donors) (IL-2 2.5 ng/mL); assay: as above; settings: 72 h
[19] = system: normal primary NK cells, pool 1 (3 donors), resting (IL-2 0 ng/mL); assay: as above; settings: 72 h
[20] = system: normal primary NK cells, pool 2 (3 donors) (IL-2 2.5 ng/mL); assay: as above; settings: 72 h
IMC-1 (IL-2 20 ng/mL) [21] = assay: as above; settings: 72 h
YT (IL-2 2.5 ng/mL) [22] = assay: as above; settings: 72 h
KHYG-1 (IL-2 2.5 ng/mL) [23] = assay: as above; settings: 72 h
KAI3 (IL-2 2.5 ng/mL) [24] = assay: as above; settings: 72 h
DERL-7 (IL-2 2.5 ng/mL) [25] = assay: as above; settings: 72 h
SNK-6 (IL-2 2.5 ng/mL) [26] = assay: as above; settings: 72 h
[27] = system: normal NK cells expanded with K562-aAPC; assay: drug sensitivity score (DSS) (DSS units); higher = more sensitive; extreme values may be limits of the assay; settings: 72 h; IL-2 2.5 ng/mL
Protocol: (§1)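 Drug sensitivity and resistance testing on K562-aAPC-expanded normal NK cells: 5 concentrations (10-fold steps over a 10,000-fold range), 72 h at 37 °C, viability by CellTiter-Glo normalised to DMSO and benzethonium chloride controls; DSS from the fitted curve.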

[28] = system: normal NK cells expanded with K562-aAPC; assay: percent inhibition of viability; higher = more inhibition; settings: 72 h, IL-2 2.5 ng/mL
Protocol: as §1

N#Cc1ccc(C(c2ccc(C#N)cc2)n2cncn2)cc1 [Letrozole] (max concentration tested 10000 nM)
Settings | drug sensitivity score
DERL-7 (IL-2 2.5 ng/mL) [12] | 0
IMC-1 (IL-2 20 ng/mL) [8] | 0
KAI3 (IL-2 2.5 ng/mL) [11] | 0.38
KHYG-1 (IL-2 2.5 ng/mL) [10] | 0
NK-92 (IL-2 2.5 ng/mL) [4] | 0.25
NK-YS (IL-2 2.5 ng/mL) [1] | 0
NKL (IL-2 2.5 ng/mL) [3] | 0.42
SNK-6 (IL-2 2.5 ng/mL) [13] | 0
YT (IL-2 2.5 ng/mL) [9] | 1.23
[2] | 0
[5] | 0
[6] | 0
[7] | 0
[27] | 0

percent inhibition of viability [%]
Settings | 1 nM | 10 nM | 100 nM | 1000 nM | 10000 nM
DERL-7 (IL-2 2.5 ng/mL) [25] | 3.92 | -4.41 | 0.76 | -20.5 | -8.07
IMC-1 (IL-2 20 ng/mL) [21] | -2.09 | -2.27 | -1.74 | 2.28 | 8.91
KAI3 (IL-2 2.5 ng/mL) [24] | -6.48 | -8.29 | 2.19 | 2.56 | 14.1
KHYG-1 (IL-2 2.5 ng/mL) [23] | -7.78 | -5.69 | -3.04 | -1.07 | 5.03
NK-92 (IL-2 2.5 ng/mL) [17] | -10.2 | -8 | -6.61 | -5.03 | 17.5
NK-YS (IL-2 2.5 ng/mL) [14] | -8.7 | -6.85 | -4.19 | 1.26 | 9.67
NKL (IL-2 2.5 ng/mL) [16] | -6.26 | -9.07 | 3.52 | 11.2 | 10.6
SNK-6 (IL-2 2.5 ng/mL) [26] | 14.2 | -31.4 | -25.2 | -23.6 | -28.2
YT (IL-2 2.5 ng/mL) [22] | 0.65 | -5.8 | 1.61 | -1.29 | 30.5
[15] | 2.09 | -1.11 | 10.7 | -4.55 | -7.8
[18] | -10.5 | 0.24 | 0.58 | 3.66 | 5.55
[19] | -3.46 | 12.2 | 4.99 | 1.86 | 7.77
[20] | -3.07 | -5.44 | 6.01 | 0.12 | -0.44
[28] | -3.92 | -7.21 | -4.76 | 2.21 | 7.69

CN(C)CCOc1ccc(/C(=C(/CCCl)c2ccccc2)c2ccccc2)cc1 [Toremifene] (max concentration tested 10000 nM)
Settings | drug sensitivity score
DERL-7 (IL-2 2.5 ng/mL) [12] | 5.52
IMC-1 (IL-2 20 ng/mL) [8] | 0.01
KAI3 (IL-2 2.5 ng/mL) [11] | 4.76
KHYG-1 (IL-2 2.5 ng/mL) [10] | 3.24
NK-92 (IL-2 2.5 ng/mL) [4] | 3.98
NK-YS (IL-2 2.5 ng/mL) [1] | 0.96
NKL (IL-2 2.5 ng/mL) [3] | 2.74
SNK-6 (IL-2 2.5 ng/mL) [13] | 6.85
YT (IL-2 2.5 ng/mL) [9] | 2.42
[2] | 1.64
[5] | 2.96
[6] | 5.83
[7] | 3.11
[27] | 0.54

percent inhibition of viability [%]
Settings | 1 nM | 10 nM | 100 nM | 1000 nM | 10000 nM
DERL-7 (IL-2 2.5 ng/mL) [25] | 1.82 | 1.64 | 5.42 | 24.2 | 53.5
IMC-1 (IL-2 20 ng/mL) [21] | -0.16 | 2.16 | -3.63 | 1.2 | 10.6
KAI3 (IL-2 2.5 ng/mL) [24] | 8.55 | 1.95 | 5.19 | 8.64 | 60.7
KHYG-1 (IL-2 2.5 ng/mL) [23] | -7.33 | 4.52 | -9.46 | 6.72 | 42
NK-92 (IL-2 2.5 ng/mL) [17] | -4.85 | -1.12 | 2.18 | 6.43 | 54.2
NK-YS (IL-2 2.5 ng/mL) [14] | 1.32 | -4.28 | -2.7 | -0.4 | 25.6
NKL (IL-2 2.5 ng/mL) [16] | 7.08 | 8.77 | -8.23 | 8.2 | 32.7
SNK-6 (IL-2 2.5 ng/mL) [26] | 13 | 30.5 | -2.4 | 28.2 | 29
YT (IL-2 2.5 ng/mL) [22] | -5.23 | 2.7 | -3.67 | 5.54 | 33
[15] | -2.58 | -5.78 | 0.52 | 5.83 | 23.4
[18] | -5.3 | -17.6 | -3 | -8.46 | 64.3
[19] | -10.2 | -1.02 | 4.14 | 7.87 | 82.2
[20] | -4.96 | -0.07 | -1.79 | 3.55 | 49
[28] | -7.54 | -7.98 | -6.66 | -5.37 | 22.4
